In brackets after ≈: the same amount, converted by molar mass.
Tests used:
Assay type in all cases: functional
[1] = system: Stenotrophomonas maltophilia; assay: Antibacterial activity against Stenotrophomonas maltophilia ATCC17808 incubated for 16 to 20 hrs by broth microdilution method; settings: time 16-20 hrs
[2] = system: Staphylococcus aureus; assay: Antibacterial activity against Staphylococcus aureus ATCC25923 incubated for 16 to 20 hrs by broth microdilution method; settings: time 16-20 hrs
[3] = system: Enterococcus faecalis; assay: Antibacterial activity against Enterococcus faecalis ATCC29212 incubated for 16 to 20 hrs by broth microdilution method; settings: time 16-20 hrs
[4] = system: Escherichia coli; assay: Antibacterial activity against Escherichia coli ATCC25922 incubated for 16 to 20 hrs by broth microdilution method; settings: time 16-20 hrs
[5] = system: Staphylococcus aureus; assay: Antibacterial activity against Staphylococcus aureus ATCC25923 under 10^7 CFU/ml of bacterial inoculum culture by absorbance based assay
[6] = system: Staphylococcus aureus; assay: Antibacterial activity against Staphylococcus aureus ATCC25923 under 10^4 CFU/ml of bacterial inoculum culture by absorbance based assay
[7] = system: Staphylococcus aureus; assay: Antibacterial activity against Staphylococcus aureus ATCC25923 under 10^6 CFU/ml of bacterial inoculum culture by absorbance based assay
[8] = system: Staphylococcus aureus; assay: Antibacterial activity against Staphylococcus aureus ATCC25923 under 10^5 CFU/ml of bacterial inoculum culture by absorbance based assay
[9] = system: Escherichia coli; assay: Antibacterial activity against drug-resistant Escherichia coli clinical isolate 1333 incubated for 16 to 20 hrs by broth microdilution method; settings: time 16-20 hrs
[10] = system: Escherichia coli; assay: Antibacterial activity against drug-resistant Escherichia coli clinical isolate 1322 incubated for 16 to 20 hrs by broth microdilution method; settings: time 16-20 hrs
[11] = system: Staphylococcus aureus; assay: Antibacterial activity against drug-resistant Staphylococcus aureus clinical isolate M20 incubated for 16 to 20 hrs by broth microdilution method; settings: time 16-20 hrs

SMILES	MIC [1]	MIC [2]	MIC [3]	MIC [4]	MIC [5]	MIC [6]	MIC [7]	MIC [8]	MIC [9]	MIC [10]	MIC [11]
CC[C@H]1OC(=O)C[C@@H](O)[C@H](C)[C@@H](O[C@@H]2O[C@H](C)[C@@H](O)[C@H](N(C)C)[C@H]2O)[C@@H](CCNCc2cn(-c3cnc4ccccc4c3)nn2)C[C@@H](C)C(=O)/C=C/C(C)=C/[C@@H]1CNCc1ccc(Cl)cc1	1 µg/mL (≈ 1.07 µM)	1 µg/mL (≈ 1.07 µM)	2 µg/mL (≈ 2.15 µM)	2 µg/mL (≈ 2.15 µM)							
CC[C@H]1OC(=O)C[C@@H](O)[C@H](C)[C@@H](O[C@@H]2O[C@H](C)[C@@H](O)[C@H](N(C)C)[C@H]2O)[C@@H](CCNCc2cn(-c3cnc4ccccc4c3)nn2)C[C@@H](C)C(=O)/C=C/C(C)=C/[C@@H]1CN(CC)Cc1ccccc1	1 µg/mL (≈ 1.08 µM)	2 µg/mL (≈ 2.16 µM)	2 µg/mL (≈ 2.16 µM)	1 µg/mL (≈ 1.08 µM)							
C[C@@H](O)[C@H]1C(=O)N2C(C(=O)O)=C(S[C@@H]3CN[C@H](C(=O)N(C)C)C3)[C@H](C)[C@H]12 [MEROPENEM]	0.125 µg/mL (≈ 0.326 µM)	0.063 µg/mL (≈ 0.164 µM)	0.063 µg/mL (≈ 0.164 µM)	0.125 µg/mL (≈ 0.326 µM)	2 µg/mL (≈ 5.22 µM)	0.25 µg/mL (≈ 0.652 µM)	1 µg/mL (≈ 2.61 µM)	0.5 µg/mL (≈ 1.3 µM)			
CC[C@H]1OC(=O)C[C@@H](O)[C@H](C)[C@@H](O[C@@H]2O[C@H](C)[C@@H](O)[C@H](N(C)C)[C@H]2O)[C@@H](CCN(C)Cc2cn(-c3cnc4ccccc4c3)nn2)C[C@@H](C)C(=O)/C=C/C(C)=C/[C@@H]1CN(CC)Cc1ccccc1	2 µg/mL (≈ 2.13 µM)	2 µg/mL (≈ 2.13 µM)	4 µg/mL (≈ 4.26 µM)	8 µg/mL (≈ 8.53 µM)							
CC[C@H]1OC(=O)C[C@@H](O)[C@H](C)[C@@H](O[C@@H]2O[C@H](C)[C@@H](O)[C@H](N(C)C)[C@H]2O)[C@@H](CCNCc2cn(-c3cnc4ccccc4c3)nn2)C[C@@H](C)C(=O)/C=C/C(C)=C/[C@@H]1CN(C)Cc1ccccc1	2 µg/mL (≈ 2.2 µM)	0.5 µg/mL (≈ 0.549 µM)	2 µg/mL (≈ 2.2 µM)	2 µg/mL (≈ 2.2 µM)							
CC[C@H]1OC(=O)C[C@@H](O)[C@H](C)[C@@H](O[C@@H]2O[C@H](C)[C@@H](O)[C@H](N(C)C)[C@H]2O)[C@@H](CCN(C)Cc2cn(-c3cnc4ccccc4c3)nn2)C[C@@H](C)C(=O)/C=C/C(C)=C/[C@@H]1CNCc1ccc(C)cc1	2 µg/mL (≈ 2.16 µM)	1 µg/mL (≈ 1.08 µM)	4 µg/mL (≈ 4.33 µM)	2 µg/mL (≈ 2.16 µM)							
CC[C@H]1OC(=O)C[C@@H](O)[C@H](C)[C@@H](O[C@@H]2O[C@H](C)[C@@H](O)[C@H](N(C)C)[C@H]2O)[C@@H](CCNCc2cn(-c3cnc4ccccc4c3)nn2)C[C@@H](C)C(=O)/C=C/C(C)=C/[C@@H]1CNCc1ccc(Br)cc1	2 µg/mL (≈ 2.05 µM)	1 µg/mL (≈ 1.03 µM)	2 µg/mL (≈ 2.05 µM)	2 µg/mL (≈ 2.05 µM)							
CC[C@H]1OC(=O)C[C@@H](O)[C@H](C)[C@@H](O[C@@H]2O[C@H](C)[C@@H](O)[C@H](N(C)C)[C@H]2O)[C@@H](CCN(C)Cc2cn(-c3cnc4ccccc4c3)nn2)C[C@@H](C)C(=O)/C=C/C(C)=C/[C@@H]1CNc1ccc(Br)cc1	4 µg/mL (≈ 4.1 µM)	2 µg/mL (≈ 2.05 µM)	4 µg/mL (≈ 4.1 µM)	4 µg/mL (≈ 4.1 µM)							
CC[C@H]1OC(=O)C[C@@H](O)[C@H](C)[C@@H](O[C@@H]2O[C@H](C)[C@@H](O)[C@H](N(C)C)[C@H]2O)[C@@H](CCN(C)Cc2cn(-c3cnc4ccccc4c3)nn2)C[C@@H](C)C(=O)/C=C/C(C)=C/[C@@H]1CNc1ccc2ccccc2c1	4 µg/mL (≈ 4.23 µM)	4 µg/mL (≈ 4.23 µM)	8 µg/mL (≈ 8.45 µM)	8 µg/mL (≈ 8.45 µM)							
CC[C@H]1OC(=O)C[C@@H](O)[C@H](C)[C@@H](O[C@@H]2O[C@H](C)[C@@H](O)[C@H](N(C)C)[C@H]2O)[C@@H](CCN(C)Cc2cn(-c3cnc4ccccc4c3)nn2)C[C@@H](C)C(=O)/C=C/C(C)=C/[C@@H]1CNCc1cccc(Br)c1	8 µg/mL (≈ 8.09 µM)	4 µg/mL (≈ 4.04 µM)	8 µg/mL (≈ 8.09 µM)	8 µg/mL (≈ 8.09 µM)							
CC[C@H]1OC(=O)C[C@@H](O)[C@H](C)[C@@H](O[C@@H]2O[C@H](C)[C@@H](O)[C@H](N(C)C)[C@H]2O)[C@@H](CCN(C)Cc2cn(-c3cnc4ccccc4c3)nn2)C[C@@H](C)C(=O)/C=C/C(C)=C/[C@@H]1CNCc1ccc(F)cc1	4 µg/mL (≈ 4.31 µM)	2 µg/mL (≈ 2.15 µM)	8 µg/mL (≈ 8.62 µM)	8 µg/mL (≈ 8.62 µM)							
CC[C@H]1OC(=O)C[C@@H](O)[C@H](C)[C@@H](O[C@@H]2O[C@H](C)[C@@H](O)[C@H](N(C)C)[C@H]2O)[C@@H](CCN(C)Cc2cn(-c3cnc4ccccc4c3)nn2)C[C@@H](C)C(=O)/C=C/C(C)=C/[C@@H]1CNCc1ccccc1	2 µg/mL (≈ 2.2 µM)	1 µg/mL (≈ 1.1 µM)	4 µg/mL (≈ 4.39 µM)	2 µg/mL (≈ 2.2 µM)							
CC[C@H]1OC(=O)C[C@@H](O)[C@H](C)[C@@H](O[C@@H]2O[C@H](C)[C@@H](O)[C@H](N(C)C)[C@H]2O)[C@@H](CCN(C)Cc2cn(-c3cnc4ccccc4c3)nn2)C[C@@H](C)C(=O)/C=C/C(C)=C/[C@@H]1CNCc1cc(F)cc(F)c1	1 µg/mL (≈ 1.06 µM)	1 µg/mL (≈ 1.06 µM)	1 µg/mL (≈ 1.06 µM)	1 µg/mL (≈ 1.06 µM)							
CC[C@H]1OC(=O)C[C@@H](O)[C@H](C)[C@@H](O[C@@H]2O[C@H](C)[C@@H](O)[C@H](N(C)C)[C@H]2O)[C@@H](CC=O)C[C@@H](C)C(=O)/C=C/C(C)=C/[C@@H]1CO	> 32 µg/mL	0.5 µg/mL (≈ 0.836 µM)	0.5 µg/mL (≈ 0.836 µM)	> 32 µg/mL					> 32 µg/mL	> 32 µg/mL	1 µg/mL (≈ 1.67 µM)
CC[C@H]1OC(=O)C[C@@H](O)[C@H](C)[C@@H](O[C@@H]2O[C@H](C)[C@@H](O)[C@H](N(C)C)[C@H]2O)[C@@H](CCN(C)Cc2cn(-c3cnc4ccccc4c3)nn2)C[C@@H](C)C(=O)/C=C/C(C)=C/[C@@H]1CNCc1ccc(Cl)cc1	4 µg/mL (≈ 4.23 µM)	2 µg/mL (≈ 2.12 µM)	2 µg/mL (≈ 2.12 µM)	1 µg/mL (≈ 1.06 µM)							
CC[C@H]1OC(=O)C[C@@H](O)[C@H](C)[C@@H](O[C@@H]2O[C@H](C)[C@@H](O)[C@H](N(C)C)[C@H]2O)[C@@H](CCN2C[C@H](C)C[C@H](C)C2)C[C@@H](C)C(=O)/C=C/C(C)=C/[C@@H]1CO[C@@H]1O[C@H](C)[C@@H](O)[C@@H](OC)[C@H]1OC [TILMICOSIN]	> 32 µg/mL	1 µg/mL (≈ 1.15 µM)	1 µg/mL (≈ 1.15 µM)	> 32 µg/mL							
CC[C@H]1OC(=O)C[C@@H](O)[C@H](C)[C@@H](O[C@@H]2O[C@H](C)[C@@H](O)[C@H](N(C)C)[C@H]2O)[C@@H](CCN(C)Cc2cn(-c3cnc4ccccc4c3)nn2)C[C@@H](C)C(=O)/C=C/C(C)=C/[C@@H]1CNCc1ccc(Br)cc1	8 µg/mL (≈ 8.09 µM)	4 µg/mL (≈ 4.04 µM)	8 µg/mL (≈ 8.09 µM)	8 µg/mL (≈ 8.09 µM)							
CC[C@H]1OC(=O)C[C@@H](O)[C@H](C)[C@@H](O[C@@H]2O[C@H](C)[C@@H](O)[C@H](N(C)C)[C@H]2O)[C@@H](CCNCc2cn(-c3cnc4ccccc4c3)nn2)C[C@@H](C)C(=O)/C=C/C(C)=C/[C@@H]1CNCc1ccccc1	1 µg/mL (≈ 1.12 µM)	2 µg/mL (≈ 2.23 µM)	2 µg/mL (≈ 2.23 µM)	1 µg/mL (≈ 1.12 µM)							
CCc1ccc(NC[C@H]2/C=C(C)/C=C/C(=O)[C@H](C)C[C@H](CCN(C)Cc3cn(-c4cnc5ccccc5c4)nn3)[C@H](O[C@@H]3O[C@H](C)[C@@H](O)[C@H](N(C)C)[C@H]3O)[C@@H](C)[C@H](O)CC(=O)O[C@@H]2CC)cc1	2 µg/mL (≈ 2.16 µM)	2 µg/mL (≈ 2.16 µM)	2 µg/mL (≈ 2.16 µM)	2 µg/mL (≈ 2.16 µM)							
CC[C@H]1OC(=O)C[C@@H](O)[C@H](C)[C@@H](O[C@@H]2O[C@H](C)[C@@H](O)[C@H](N(C)C)[C@H]2O)[C@@H](CCN(C)Cc2cn(-c3cnc4ccccc4c3)nn2)C[C@@H](C)C(=O)/C=C/C(C)=C/[C@@H]1CNc1ccc(C)cc1	4 µg/mL (≈ 4.39 µM)	4 µg/mL (≈ 4.39 µM)	8 µg/mL (≈ 8.79 µM)	4 µg/mL (≈ 4.39 µM)							
CC[C@H]1OC(=O)C[C@@H](O)[C@H](C)[C@@H](O[C@@H]2O[C@H](C)[C@@H](O)[C@H](N(C)C)[C@H]2O)[C@@H](CCN(C)Cc2cn(-c3cnc4ccccc4c3)nn2)C[C@@H](C)C(=O)/C=C/C(C)=C/[C@@H]1CNc1ccc(I)cc1	4 µg/mL (≈ 3.91 µM)	2 µg/mL (≈ 1.96 µM)	8 µg/mL (≈ 7.83 µM)	4 µg/mL (≈ 3.91 µM)							
